From US20250002785A1, “MULTIPURPOSE IMIDAZOLINE-BASED PROCESS CHEMICALS” (Baker Hughes Oilfield Operations LLC, priority 2023, published 2025)

Experiment: hydrogen sulfide scavenging in sour Isopar M solvent
Conditions: sour Isopar M solvent with 4000 ppm H2S, scavenger dose per sample in the 5th table
Method: Further testing was performed to compare the hydrogen sulfide scavenging properties of an exemplary embodiment of the multipurpose process chemical compared to conventional scavengers.
A sour Isopar™ M solvent was obtained with 4000 ppm hydrogen sulfide (H2S). Samples were obtained by mixing the following with the sour Isopar™ M solvent:
The control and Samples V-A through V-F were stirred for twenty-four (24) hours at ambient temperature (˜71° F.). […] The table below summarizes the hydrogen sulfide scavenging observed for each sample: […]

CC1COC(=O)O1 (centres unmarked) [Sample V-C, propylene carbonate]
% H2S reduction (24 hours, ambient temperature): 0% | H2S at 24 hours (ppm) (stirred 24 hours at ambient temperature (~71 F), control 3,500 ppm): 3,500 ppm
